A short description of data set [1]: Log P (octanol-water partition coefficient).
Source text: “Log P” means octanol-water partition coefficient and is a physical property that describes a chemical's lipophilic and hydrophophilic characteristics. Log P is the logarithm of the ratio of a chemical's concentration in the octanol phase to its concentration in the aqueous phase of a two-phase system at equilibrium. The partition coefficient is a ratio of concentrations of un-ionized compound between the two solutions. Log P=Log 10 (partition coefficient). Partition coefficient=[organic]/[aqueous], where [organic] is the concentration of the compound of interest in the organic solvent (e.g., octanol), and [aqueous] is the concentration of the compound of interest in the water phase.
The nature of data set [2]: Combing force after leave-on hair treatment using neat material. The conditions noted are these: 0.4 ml neat material on 4 g switch, average of three switches; for Combing force, 1 Wash (gf): after 1 clarifying shampoo wash; for Combing force, 5 Washes (gf): after 5 clarifying shampoo washes. From the text: (§1) This double combing apparatus is attached to an Instron Model 5564. The switch is combed 5 times with a fine-tooth comb and hanged onto the Instron load cell. Then, the hair switch is placed in the double comb apparatus. The Instron pulls the hair vertically at a rate of 10 mm/min until the hair switch clears the final comb. The peak force as the switch passes through the top comb is reported.
The treatment is repeated to two additional switches. The treated hair switches are allowed to rest for 24 hours under controlled temperature and relative humidity conditions (27° C. and 50% RH). After this time period, each hair switch is washed with a clarifying shampoo (see shampoo washing protocol below) and allowed to air dry for 24 hours under controlled temperature and relative humidity conditions (27° C. and 50% RH). The combing force is measured for each switch and an average for the three switches is calculated. […] Linoleic acid • b.

Data set [3] is described as follows: Combing force for dry hair, aqueous/ethanol leave-on treatment. The conditions noted are these: Table 2/FIG. 2; physically damaged virgin hair; aqueous/ethanol leave-on formulation, 2.5% total conditioning agent.
Source text: as §1

A short description of data set [4]: Combing force for dry hair, aqueous/ethanol treatment. The conditions noted are these: Table 1/FIG. 1; moderately oxidatively-damaged hair; aqueous/ethanol formulation, 2.5% total conditioning agent; peak force. From the text:
A moderately oxidatively-damaged hair switch or physically damaged virgin hair switch (with weight of 4 gram and length of 8 inches) is placed in an apparatus containing two combs separated by a vertical distance of 6 inches. This double combing apparatus is attached to an Instron Model 5564. The switch is combed 5 times with a fine-tooth comb and hanged onto the Instron load cell. Then, the hair switch is placed in the double comb apparatus. The Instron pulls the hair vertically at a rate of 10 mm/min until the hair switch clears the final comb. The peak force as the switch passes through the top comb is reported. […] EtOH/H2O Leave-on Treatments Single material mixtures: 500 mg of a lipid or a lipid enhancing agent is weighed into a 20 mL vial. 19.5 g of 50/50(v/v) ethanol water mixture is then added to the vial and capped. The mixture is then agitated for 30 seconds. Shampoo Washing Protocol: An amount of 0.10 g of clarifying shampoo per gram of hair is spread via a syringe onto separate hair switch. Each application consists of adding shampoo to the hair, milking for 30 seconds followed by rinsing for 30 seconds. Shampoo is then reapplied (0.[…]), milked for 30 seconds and rinsed for 30 seconds. Leave-on Treatments with Aqueous/Ethanolic Lipid Compositions a. […] The combing force is measured for each switch and an average for the three switches is calculated. […]

Take `CCCCC/C=C\C/C=C\CCCCCCCC(=O)O` [Linoleic Acid, reference compound]: the logP in data set [1] (octanol/water) stood at 6.4. Also, in data set [2], the “Combing force, 1 Wash (gf)” value was 27 gf and the “Combing force, 5 Washes (gf)” value came out at 96 gf. Take `CCCCCCCCCCCCCCCCCC(=O)O` [Stearic Acid, reference compound]: the log partition coefficient (logP) in data set [1] (octanol/water) was found to be 8. As to `CCCCCC/C=C\CCCCCCCC(=O)O` [Palmitoleic Acid], in data set [3], the “Combing Force (gf)” value is reported as 76 gf. The compound further returned a log partition coefficient (logP) in data set [1] (octanol/water) of 6.6. As for `CCCCCCCC/C=C\CCCCCCCC(=O)O` [Oleic acid], the “Combing Force (gf)” value in data set [4] was 161 gf. The compound further gave a logP in data set [1] (octanol/water) of 7. Moreover, in data set [2], the “Combing force, 1 Wash (gf)” value is reported as 24 gf and the “Combing force, 5 Washes (gf)” value amounted to 58 gf.

On to `CCCCCCCC/C=C\CCCCCCCCO` [Oleyl Alcohol], for which the “Combing Force (gf)” value in data set [3] was found to be 246 gf. In addition, the logP in data set [1] (octanol/water) is 7. In data set [1] (octanol/water), `CCCCCCCC/C=C\CCCCCCCCCCCC(=O)O` [Erucic acid, reference compound] returned a logP of 9. On the same count and under the same terms, for `CCCCCCCC/C=C\CCCCCCCC(=O)OC` [Methyl Oleate, reference compound] the value was 8. As to `CCCCCCCC/C=C\CCCCCCCC(=O)OCC(O)CO` (stereo not drawn) [Glyceryl alpha-monooleate], the “Combing Force (gf)” value in data set [3] came to 268 gf; in data set [4], 157 gf. In addition, the lipophilicity (logP) in data set [1] (octanol/water) is 6.3. Take `CCCCCCCC/C=C\CCCCCCCC(=O)OCCO` [Ethyleneglycol monooleate]: the lipophilicity (logP) in data set [1] (octanol/water) stood at 6.9. In data set [1] (Table 3), “Propyleneglycol monooleate [reference compound]” showed a logP of 7.5.

As a reminder, the logP is the decadic logarithm of the partition coefficient of the neutral form, usually between octanol and water. A higher logP goes with higher lipophilicity.

The values above are taken from US11986542B2, “Composition for enhancing hair fiber properties” (The Procter & Gamble Company, priority 2016, dated 2024).
